Data: patent US11260070B2, “Methods of treating feline coronavirus infections” (GILEAD SCIENCES, INC., priority 2017, dated 2022)
pEC50: −log10 of the molar value. Like-named read-outs stand apart in the source and are kept apart here.

Tests used:
[1] = CellTox Green Cytotoxicity Assay in uninfected CRFK cells; type: cell-based; settings: cat (feline), 72 hour incubation
Procedure: Compound 1 was screened for cytotoxicity in uninfected CRFK cells using a commercially available CellTox Green Cytotoxicity Assay (Promega). The assayed was performed in a 96 well place formate using serial dilution of Compound 1 in sextuplicate. Compound concentration associated with 50% cytotoxicity (CC50) following 72 hour incubation was calculated by regression analysis.

[2] = tested on: feline coronavirus; test: In vitro antiviral assay: virus-induced cytopathic effect in CRFK cells (crystal violet staining); type: cell-based
Procedure: Compound 1 was screened for activity against feline Coronaviruses in an in vitro assay. Serial dilutions of Compound 1 were mixed with 2.5×10^4 copies of feline coronavirus and added in sextuplicate to 96 well plates with pre-seeded CRFK cells. The plates were incubated for 72 hours followed by a staining of the cell culture monolayers with crystal violet. The level of virus-induced cytopathic effect was quantified visually and using a plate reader. Positive control wells comprised the virus without Compound 1. Negative control wells lacked both virus and Compound 1. The EC50 was calculated by regression analysis.

**Q.** For `N#C[C@@]1(c2ccc3c(N)ncnn23)O[C@H](CO)[C@@H](O)[C@H]1O` [Compound 1, (2R,3R,4S,5R)-2-(4-aminopyrrolo[2,1-f][1,2,4]triazin-7-yl)-3,4-dihydroxy-5-(hydroxymethyl)tetrahydrofuran-2-carbonitrile], which CC50 at 72 h [1] is on record?
**A.** The CC50 at 72 h was > 100000 nM.

**Q.** And the pEC50 ([2]; Alphacoronavirus 1, CRFK, read-out: EC50 (FIG. 1 legend))?
**A.** The pEC50 was 6.12.

**Q.** What about the pEC50 ([2]; Alphacoronavirus 1, feline coronavirus in CRFK cells, 72 hours incubation, regression analysis (Table 1), read-out: EC50) of the same compound?
**A.** The pEC50 was 6.11.

**Q.** What about the “inhibition of feline coronavirus” value ([2]; CRFK cells, at 3, 2 and 1 μM, FIG. 1) of the same compound?
**A.** The value was ~100%.
